{
  "source": "paper PMC6470885",
  "about": "(Molecules, 2019)",
  "key": {"[1]": {"test_system": "HIV-1 mutants resistant to T20, T2635, or HP23", "assay_type": "cell-based", "details": "ratio of IC50s", "experimental": "(§3) For each well of a 96-well plate, 50 μL of a peptide were mixed with 50 μL of 100 × TCID50 (50% tissue culture infective doses) of HIV-1 live virus and incubated at 37 °C for 30 min. Afterwards, 2 × 10^4 MT-2 (for X4 virus) or CEMx174 5.25 M7 cells (for R5 virus) were added. After overnight culture, the supernatant was replaced with fresh RPMI-1640 medium containing 10% fetal bovine serum (FBS). After further culture at 37 °C for three days, 50 μL of the culture medium were collected and mixed with equal volume of 5% (v/v) Triton X-100. The p24 antigen, which represents HIV-1 quantity, was detected by ELISA. Briefly, the collected mixtures were added to a plate coated with anti-HIV Immune Globulin (HIVIG) from the NIH AIDS Reagent Program. Anti-p24 mAb 183, rabbit anti-mouse IgG-HRP (Dako, Glostrup, Denmark) and substrate 3,3,5,5-TMB (Sigma-Aldrich, New York, NY) were added and washed away sequentially. The absorbance at 450 nm (A450) was determined by a Multi-Detection Microplate Reader (Ultra 384, Tecan, Tokyo, Japan). IC50s were calculated using Calcusyn software (Biosoft, Ferguson, MO), and the lines of best fit were drawn using GraphPad Prism 8 software (La Jolla, CA)."}, "[2]": {"test_system": "M7 cells", "test": "Cytotoxicity, CCK8 assay, M7 cells", "procedure": "(§1) A peptide at graded concentration was incubated with 2 × 10^5/mL cells at 37 °C for 3 days before adding 10 μL of CCK8 reagent (Sigma-Aldrich). After another round of incubation at 37 °C for 2 h, A450 was measured with the Multi-Detection Microplate Reader. Cell viability was calculated by […]."}, "[3]": {"test": "Serum half-life and pharmacokinetic parameters in mice", "procedure": "(§2) Evaluation of ex vivo anti-HIV-1 activity of a peptide in a mouse model was performed as described recently. This mouse experiment was conducted under ethical guidelines and approved by the Institutional Laboratory Animal Care and Use Committee at Fudan University (20160927-2). ICR mice used for this study were bred at the Department of Laboratory Animal Science of Fudan University. Briefly, 5 mg/kg of a peptide were intraperitoneally (i.p.) injected into four female ICR mice (8 weeks). […] Anti-HIV-1 activities of the mouse serum samples were determined in the same way as described above. The highest dilution-fold of the serum causing 50% inhibition of HIV-1IIIB infection (IC50) was calculated."}, "[4]": {"test_system": "HIV-1IIIB (X4 virus)", "assay_type": "cell-based", "details": "ratio of IC50s", "experimental": "(§4) Inhibitory activities of peptides on infection by HIV-1 X4 strain IIIB, R5 strain Bal, and T20-, T2635-, HP23-resistant strains were determined as previously described [42]. For each well of a 96-well plate, 50 μL of a peptide were mixed with 50 μL of 100 × TCID50 (50% tissue culture infective doses) of HIV-1 live virus and incubated at 37 °C for 30 min. Afterwards, 2 × 10^4 MT-2 (for X4 virus) or CEMx174 5.25 M7 cells (for R5 virus) were added. After overnight culture, the supernatant was replaced with fresh RPMI-1640 medium containing 10% fetal bovine serum (FBS). After further culture at 37 °C for three days, 50 μL of the culture medium were collected and mixed with equal volume of 5% (v/v) Triton X-100. The p24 antigen, which represents HIV-1 quantity, was detected by ELISA. Briefly, the collected mixtures were added to a plate coated with anti-HIV Immune Globulin (HIVIG) from the NIH AIDS Reagent Program. Anti-p24 mAb 183, rabbit anti-mouse IgG-HRP (Dako, Glostrup, Denmark) and substrate 3,3,5,5-TMB (Sigma-Aldrich, New York, NY) were added and washed away sequentially. The absorbance at 450 nm (A450) was determined by a Multi-Detection Microplate Reader (Ultra 384, Tecan, Tokyo, Japan). IC50s were calculated using Calcusyn software (Biosoft, Ferguson, MO), and the lines of best fit were drawn using GraphPad Prism 8 software (La Jolla, CA)."}, "[5]": {"test_system": "HIV-1 T20-resistant strains", "details": "ratio of IC50s", "experimental": "as §4"}, "[6]": {"test_system": "HIV-1Bal (R5 virus)", "assay_type": "cell-based", "details": "ratio of IC50s", "experimental": "as §4"}, "[7]": {"test_system": "HIV-1IIIB", "test": "Ex vivo anti-HIV-1 activity of sera of peptide-treated mice", "assay_type": "in vivo", "details": "ICR mice, 5 mg/kg i.p.; serum tested against HIV-1IIIB", "procedure": "as §2"}, "[8]": {"test_system": "HIV-1IIIB (X4 virus)", "test": "Virus wash and nonwash assay", "assay_type": "cell-based", "details": "HIV-1IIIB incubated with peptide 4 °C 30 min, unbound peptide washed away, then MT-2 cells", "procedure": "To determine whether a peptide binds with the viral particle in order to execute its anti-HIV-1 activity, virus wash and nonwash assays were performed as previously described. Briefly, HIV-1IIIB (50 × TCID50) were incubated with a peptide at 4 °C for 30 min, followed by washes of the pretreated viral particles to remove the unbound peptide (control: without washes) before being added to 2 × 10^4 MT-2 cells. After culture at 37 °C overnight, the supernatant was replaced by fresh RPMI-1640 medium containing 10% FBS. The inhibitory activity of the virus-bound peptide in the wash group and free peptide in the nonwash group was determined as described above."}, "[9]": {"test_system": "HIV-1 T2635-resistant strains", "details": "ratio of IC50s", "experimental": "as §3"}, "[10]": {"test_system": "MT-2 cells", "test": "Cytotoxicity, CCK8 assay, MT-2 cells", "procedure": "as §1"}, "[11]": {"test_system": "cell-cell fusion between H9/IIIB cells and MT-2 cells", "test": "HIV-1-mediated cell-cell fusion (dye transfer assay)", "assay_type": "cell-based", "details": "ratio of IC50s", "procedure": "A dye transfer assay was performed to detect HIV-1 Env-mediated cell-cell fusion as described previously. Briefly, for each well of a 96-well plate, 2 × 10^3 H9/IIIB cells labeled with the fluorescent reagent Calcein AM (Molecular Probes, Inc., Eugene, Oregon) were incubated with a CHR-peptide at 37 °C for 30 min. Afterwards, 10^4 MT-2 cells were added and incubated at 37 °C for 2 h. The fused and unfused Calcein-labeled H9/IIIB cells were counted under an inverted fluorescence microscope (Zeiss, Oberkochen, Germany). The IC50 values were calculated by using the Calcusyn computer program (Biosoft, Ferguson, MO)."}, "[12]": {"test_system": "HIV-1 HP23-resistant strains", "details": "ratio of IC50s", "experimental": "as §3"}, "[13]": {"details": "concentrations as high as 8 μM, 3 days, 37 °C, CCK8"}, "[14]": {"details": "Mice (i.p., n = 3), 5 mg/kg, concentration estimated from serum anti-HIV-1 activity, MODFIT"}},
  "note": "Where “and” joins values, the source holds several entries; their conditions need not be identical. Equal values may be shown once. Non-standard residues stand in square brackets, D forms with d. Residues, ends and D or L forms follow the SMILES beside them. *: point of attachment. Palmitoyl = CCCCCCCCCCCCCCCC(=O)*; PEG4 = NCCOCCOCCOCCOCCC(=O)O",
  "data": [
    {"smiles": "CCCCCCCCCCCCCCCC(=O)NCCCC[C@H](NC(=O)CCOCCOCCOCCOCCNC(=O)CNC(=O)[C@H](CO)NC(=O)CNC(=O)[C@H](CC(C)C)NC(=O)[C@H](CC(=O)O)NC(=O)[C@@H](NC(=O)[C@H](CCC(N)=O)NC(=O)[C@H](CCC(N)=O)NC(=O)[C@H](CC(N)=O)NC(=O)[C@H](CCC(N)=O)NC(=O)[C@H](CO)NC(=O)[C@H](CCCCN)NC(=O)[C@H](CCCCN)NC(=O)[C@H](CC(C)C)NC(=O)[C@@H](NC(=O)[C@H](CCC(=O)O)NC(=O)[C@H](CCC(=O)O)NC(=O)[C@@H](NC(=O)[C@H](CCCCN)NC(=O)[C@H](CCCCN)NC(=O)[C@@H](NC(=O)[C@H](Cc1ccc(O)cc1)NC(=O)[C@H](CCC(=O)O)NC(=O)[C@H](CCC(=O)O)NC(=O)[C@@H](NC(=O)[C@H](CCCCN)NC(=O)[C@H](CCCCN)NC(=O)[C@H](CCC(=O)O)NC(=O)[C@H](Cc1c[nH]c2ccccc12)NC(=O)[C@H](CCC(=O)O)NC(=O)[C@H](CCC(=O)O)NC(=O)[C@H](Cc1c[nH]c2ccccc12)NC(=O)[C@@H](NC(=O)[C@H](CCSC)NC(=O)[C@@H](N)CCC(=O)O)[C@@H](C)O)[C@@H](C)CC)[C@@H](C)CC)[C@@H](C)CC)[C@@H](C)CC)[C@@H](C)CC)C(=O)O", "note": "[YIK-C16] (H-EMTWEEWEKKIEEYIKKIEEILKKSQNQQIDLGSG[PEG4]K(Palmitoyl)-OH; N-terminus and C-terminus assumed)", "values": [
      {"measurement": "fold more effective than HP23-E6-IDL against infection by HIV-1 mutants resistant to T20, T2635 and HP23", "setting": "[1]", "value": "about 16 fold"},
      {"measurement": "non-cytotoxic concentration (8 μM) relative to IC50 for inhibiting HIV-1Bal infection", "setting": "[2]; 8 μM versus IC50 against HIV-1Bal", "value": "~131", "unit": "fold"},
      {"measurement": "in vitro cytotoxicity to M7 cells", "setting": "[2]; [13]", "value": "none of these peptides exhibited in vitro cytotoxicity"},
      {"measurement": "AUC0-15h", "setting": "[3]; [14]", "value": "14900 ± 3800", "unit": "ng·h/mL"},
      {"measurement": "AUCINF_obs", "setting": "[3]; [14]", "value": "15000 ± 3700", "unit": "ng·h/mL"},
      {"measurement": "Cl_F_obs/Cl_obs", "setting": "[3]; [14]", "value": "5.773 ± 1.27", "unit": "mL/min/kg"},
      {"measurement": "Cmax", "setting": "[3]; [14]", "value": "2200 ± 100", "unit": "ng/mL"},
      {"measurement": "MRTlast", "setting": "[3]; [14]", "value": "9.5 ± 5.1", "unit": "h"},
      {"measurement": "Tmax", "setting": "[3]; [14]", "value": "4.0 ± 1.7", "unit": "h"},
      {"measurement": "Vz_F_obs/Vz_obs", "setting": "[3]; [14]", "value": "2.7388 ± 0.7407", "unit": "L/kg"},
      {"measurement": "t½", "setting": "[3]; [14]", "value": "5.9 ± 3.2", "unit": "h"},
      {"measurement": "fold longer serum half-life than HP23-E6-IDL", "setting": "[3]; mice, i.p.", "value": "~5.9", "unit": "fold"},
      {"measurement": "fold more potent than YIK against HIV-1IIIB infection", "setting": "[4]", "value": 3.6, "unit": "fold"},
      {"measurement": "fold more potent than HP23-E6-IDL for inhibiting infection by HIV-1 T20-resistant strains", "setting": "[5]", "value": "about 12 fold"},
      {"measurement": "fold more effective than HP23-E6-IDL against HIV-1Bal infection", "setting": "[6]", "value": "13.3 fold and ~13 fold"},
      {"measurement": "fold more effective than YIK against HIV-1Bal infection", "setting": "[6]", "value": 10.5, "unit": "fold"},
      {"measurement": "maximum inhibitory activity of serum (fold of IC50; highest dilution-fold of serum causing 50% inhibition)", "setting": "[7]", "value": "about 4500 fold"},
      {"measurement": "serum inhibitory activity maintained for 15 h post-injection (fold of IC50)", "setting": "[7]", "value": "> 275", "unit": "fold"},
      {"measurement": "time of maximum serum inhibitory activity post-injection", "setting": "[7]", "value": "about 3 h"},
      {"measurement": "inhibition of HIV-1IIIB infection, virus preincubated with peptide, washed", "setting": "[8]", "value": "could inhibit HIV-1IIIB infection when the unbound peptide was washed away"},
      {"measurement": "fold more potent than HP23-E6-IDL for inhibiting infection by HIV-1 T2635-resistant strains", "setting": "[9]", "value": "about 12 fold"},
      {"measurement": "non-cytotoxic concentration (8 μM) relative to IC50 for inhibiting HIV-1IIIB infection", "setting": "[10]; 8 μM versus IC50 against HIV-1IIIB", "value": "about 105 fold"},
      {"measurement": "in vitro cytotoxicity to MT-2 cells", "setting": "[10]; [13]", "value": "none of these peptides exhibited in vitro cytotoxicity"},
      {"measurement": "potency relative to YIK and HP23-E6-IDL in inhibiting HIV-1-mediated cell-cell fusion", "setting": "[11]", "value": "about two-fold more potent"},
      {"measurement": "fold more potent than HP23-E6-IDL for inhibiting infection by HIV-1 HP23-resistant strains", "setting": "[12]", "value": "~26", "unit": "fold"}
    ]}
  ]
}
